Reference: PubChem BioAssay (NCI)
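Step 1: Grow cells in 96-well plates. Step 2: Expose to compound for 48 hours at 5 concentrations. Step 3: Interpolate endpoints linearly; if unreached, use highest concentration. TGI: concentration producing complete growth inhibition.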

Legend:
Assay in all cases: DTP human tumour cell line panel, 48 h
SN12C renal = tested on: SN12C renal
MDA-N = tested on: MDA-N
HCC-2998 colon = tested on: HCC-2998 colon
HT29 colon = tested on: HT29 colon
NCI/ADR-RES ovarian = tested on: NCI/ADR-RES ovarian
MCF7 breast = tested on: MCF7 breast
LOX IMVI melanoma = tested on: LOX IMVI melanoma
UACC-257 melanoma = tested on: UACC-257 melanoma
RXF 393 renal = tested on: RXF 393 renal
A549 NSCLC = tested on: A549 NSCLC
OVCAR-8 ovarian = tested on: OVCAR-8 ovarian
HS 578T breast = tested on: HS 578T breast
SF-539 CNS = tested on: SF-539 CNS
SK-MEL-2 melanoma = tested on: SK-MEL-2 melanoma
HCT-15 colon = tested on: HCT-15 colon
M14 melanoma = tested on: M14 melanoma
SNB-75 CNS = tested on: SNB-75 CNS
KM12 colon = tested on: KM12 colon
U251 CNS = tested on: U251 CNS
HCT-116 colon = tested on: HCT-116 colon
ACHN renal = tested on: ACHN renal
NCI-H522 lung = tested on: NCI-H522 lung
UACC-62 melanoma = tested on: UACC-62 melanoma
MOLT-4 leukemia = tested on: MOLT-4 leukemia
SNB-19 CNS = tested on: SNB-19 CNS
SK-MEL-5 melanoma = tested on: SK-MEL-5 melanoma
UO-31 renal = tested on: UO-31 renal
T-47D breast = tested on: T-47D breast
HOP-62 NSCLC = tested on: HOP-62 NSCLC
SW-620 colon = tested on: SW-620 colon
OVCAR-4 ovarian = tested on: OVCAR-4 ovarian
TK-10 renal = tested on: TK-10 renal
OVCAR-5 ovarian = tested on: OVCAR-5 ovarian
NCI-H23 lung = tested on: NCI-H23 lung
K-562 leukemia = tested on: K-562 leukemia
IGROV1 ovarian = tested on: IGROV1 ovarian
HOP-92 NSCLC = tested on: HOP-92 NSCLC
BT-549 breast = tested on: BT-549 breast
OVCAR-3 ovarian = tested on: OVCAR-3 ovarian
SK-MEL-28 melanoma = tested on: SK-MEL-28 melanoma
CAKI-1 renal = tested on: CAKI-1 renal
COLO 205 colon = tested on: COLO 205 colon
CCRF-CEM leukemia = tested on: CCRF-CEM leukemia
MDA-MB-435 = tested on: MDA-MB-435
SF-295 CNS = tested on: SF-295 CNS
RPMI-8226 leukemia = tested on: RPMI-8226 leukemia
EKVX NSCLC = tested on: EKVX NSCLC
NCI-H460 lung = tested on: NCI-H460 lung
MDA-MB-231 breast = tested on: MDA-MB-231 breast
A498 renal = tested on: A498 renal
SF-268 CNS = tested on: SF-268 CNS
DU-145 prostate = tested on: DU-145 prostate
SK-OV-3 ovarian = tested on: SK-OV-3 ovarian
NCI-H226 lung = tested on: NCI-H226 lung
PC-3 prostate = tested on: PC-3 prostate
MALME-3M melanoma = tested on: MALME-3M melanoma
786-0 renal = tested on: 786-0 renal
HL-60(TB) leukemia = tested on: HL-60(TB) leukemia

`CCC1(C)C=Cc2c(cc(OC)c3c(=O)c4ccccc4n(C)c23)O1` (centres undefined) gave a TGI (SN12C renal) greater than 10 µM, a TGI (MDA-N) greater than 10 µM and a TGI (HCC-2998 colon) greater than 10 µM. The TGI (HT29 colon) was greater than 10 µM, the TGI (NCI/ADR-RES ovarian) was greater than 10 µM and the TGI (MCF7 breast) was greater than 10 µM. The TGI (LOX IMVI melanoma) was greater than 10 µM, the TGI (UACC-257 melanoma) was greater than 10 µM and the TGI (RXF 393 renal) was 5.52 µM. For the same molecule, the TGI (A549 NSCLC) was greater than 10 µM, the TGI (OVCAR-8 ovarian) was greater than 10 µM and the TGI (HS 578T breast) was greater than 10 µM. It also gave a TGI (SF-539 CNS) greater than 10 µM, a TGI (SK-MEL-2 melanoma) greater than 10 µM and a TGI (HCT-15 colon) greater than 10 µM. The TGI (M14 melanoma) was greater than 10 µM, the TGI (SNB-75 CNS) was greater than 10 µM and the TGI (KM12 colon) was greater than 10 µM. For the same molecule, the TGI (U251 CNS) was greater than 10 µM, the TGI (HCT-116 colon) was greater than 10 µM and the TGI (ACHN renal) was greater than 10 µM. The TGI (NCI-H522 lung) was greater than 10 µM, the TGI (UACC-62 melanoma) was greater than 10 µM and the TGI (MOLT-4 leukemia) was greater than 10 µM. For the same molecule, the TGI (SNB-19 CNS) was greater than 10 µM, the TGI (SK-MEL-5 melanoma) was greater than 10 µM and the TGI (UO-31 renal) was 2.39 µM. For the same molecule, the TGI (T-47D breast) was greater than 10 µM, the TGI (HOP-62 NSCLC) was greater than 10 µM and the TGI (SW-620 colon) was greater than 10 µM. For the same molecule, the TGI (OVCAR-4 ovarian) was greater than 10 µM, the TGI (TK-10 renal) was greater than 10 µM and the TGI (OVCAR-5 ovarian) was greater than 10 µM. The TGI (NCI-H23 lung) was greater than 10 µM, the TGI (K-562 leukemia) was greater than 10 µM and the TGI (IGROV1 ovarian) was greater than 10 µM. For the same molecule, the TGI (HOP-92 NSCLC) was greater than 10 µM, the TGI (BT-549 breast) was greater than 10 µM and the TGI (OVCAR-3 ovarian) was greater than 10 µM. For the same molecule, the TGI (SK-MEL-28 melanoma) was greater than 10 µM, the TGI (CAKI-1 renal) was 2.53 µM and the TGI (COLO 205 colon) was greater than 10 µM. The TGI (CCRF-CEM leukemia) was greater than 10 µM, the TGI (MDA-MB-435) was greater than 10 µM and the TGI (SF-295 CNS) was greater than 10 µM. For the same molecule, the TGI (RPMI-8226 leukemia) was greater than 10 µM, the TGI (EKVX NSCLC) was greater than 10 µM and the TGI (NCI-H460 lung) was greater than 10 µM. For the same molecule, the TGI (MDA-MB-231 breast) was greater than 10 µM, the TGI (A498 renal) was greater than 10 µM and the TGI (SF-268 CNS) was greater than 10 µM. It also gave a TGI (DU-145 prostate) greater than 10 µM, a TGI (SK-OV-3 ovarian) greater than 10 µM and a TGI (NCI-H226 lung) greater than 10 µM. For the same molecule, the TGI (PC-3 prostate) was greater than 10 µM, the TGI (MALME-3M melanoma) was greater than 10 µM and the TGI (786-0 renal) was greater than 10 µM.
`CC(C)=CCC[C@]1(C)CC[C@]2(C)C3CCC(=C(C)C)[C@@H](CCCO)[C@]3(C)CC[C@@]2(C)C1` (some centres undefined) gave a TGI (SN12C renal) greater than 100 µM, a TGI (MDA-N) greater than 100 µM and a TGI (HCC-2998 colon) greater than 100 µM. For the same molecule, the TGI (HT29 colon) was greater than 100 µM, the TGI (NCI/ADR-RES ovarian) was greater than 100 µM and the TGI (HL-60(TB) leukemia) was 84.3 µM. For the same molecule, the TGI (MCF7 breast) was 67.5 µM, the TGI (UACC-257 melanoma) was 77.1 µM and the TGI (A549 NSCLC) was greater than 100 µM. For the same molecule, the TGI (OVCAR-8 ovarian) was greater than 100 µM, the TGI (HS 578T breast) was greater than 100 µM and the TGI (SK-MEL-2 melanoma) was 71.5 µM. It also gave a TGI (HCT-15 colon) greater than 100 µM, a TGI (M14 melanoma) greater than 100 µM and a TGI (SNB-75 CNS) greater than 100 µM. For the same molecule, the TGI (KM12 colon) was greater than 100 µM, the TGI (U251 CNS) was 61.4 µM and the TGI (HCT-116 colon) was greater than 100 µM. The TGI (ACHN renal) was greater than 100 µM, the TGI (NCI-H522 lung) was 37.2 µM and the TGI (UACC-62 melanoma) was greater than 100 µM. It also gave a TGI (MOLT-4 leukemia) greater than 100 µM, a TGI (SNB-19 CNS) greater than 100 µM and a TGI (SK-MEL-5 melanoma) greater than 100 µM. It also gave a TGI (UO-31 renal) of 34 µM, a TGI (T-47D breast) of 29.6 µM and a TGI (HOP-62 NSCLC) greater than 100 µM. The TGI (SW-620 colon) was greater than 100 µM, the TGI (OVCAR-4 ovarian) was greater than 100 µM and the TGI (TK-10 renal) was 44.3 µM. It also gave a TGI (OVCAR-5 ovarian) greater than 100 µM, a TGI (NCI-H23 lung) greater than 100 µM and a TGI (IGROV1 ovarian) of 37.9 µM. For the same molecule, the TGI (BT-549 breast) was greater than 100 µM, the TGI (OVCAR-3 ovarian) was greater than 100 µM and the TGI (SK-MEL-28 melanoma) was greater than 100 µM. The TGI (CAKI-1 renal) was greater than 100 µM, the TGI (COLO 205 colon) was greater than 100 µM and the TGI (CCRF-CEM leukemia) was greater than 100 µM. It also gave a TGI (MDA-MB-435) greater than 100 µM, a TGI (SF-295 CNS) greater than 100 µM and a TGI (RPMI-8226 leukemia) greater than 100 µM. It also gave a TGI (EKVX NSCLC) greater than 100 µM, a TGI (NCI-H460 lung) greater than 100 µM and a TGI (MDA-MB-231 breast) greater than 100 µM. For the same molecule, the TGI (A498 renal) was greater than 100 µM, the TGI (SF-268 CNS) was greater than 100 µM and the TGI (DU-145 prostate) was greater than 100 µM. The TGI (SK-OV-3 ovarian) was greater than 100 µM, the TGI (NCI-H226 lung) was greater than 100 µM and the TGI (PC-3 prostate) was greater than 100 µM. For the same molecule, the TGI (MALME-3M melanoma) was greater than 100 µM and the TGI (786-0 renal) was greater than 100 µM.
`NCc1ccc(-c2ccc(-c3ccc(-c4ccc(CN)s4)s3)s2)s1` gave a TGI (SN12C renal) greater than 100 µM, a TGI (MDA-N) greater than 100 µM and a TGI (HCC-2998 colon) greater than 100 µM. It also gave a TGI (HT29 colon) greater than 100 µM, a TGI (NCI/ADR-RES ovarian) greater than 100 µM and a TGI (HL-60(TB) leukemia) greater than 100 µM. It also gave a TGI (MCF7 breast) greater than 100 µM, a TGI (LOX IMVI melanoma) greater than 100 µM and a TGI (UACC-257 melanoma) greater than 100 µM. It also gave a TGI (RXF 393 renal) greater than 100 µM, a TGI (A549 NSCLC) greater than 100 µM and a TGI (OVCAR-8 ovarian) greater than 100 µM. The TGI (SF-539 CNS) was greater than 100 µM, the TGI (SK-MEL-2 melanoma) was greater than 100 µM and the TGI (HCT-15 colon) was greater than 100 µM. The TGI (M14 melanoma) was greater than 100 µM, the TGI (SNB-75 CNS) was greater than 100 µM and the TGI (KM12 colon) was greater than 100 µM. The TGI (U251 CNS) was greater than 100 µM, the TGI (HCT-116 colon) was greater than 100 µM and the TGI (ACHN renal) was greater than 100 µM. It also gave a TGI (NCI-H522 lung) greater than 100 µM, a TGI (UACC-62 melanoma) greater than 100 µM and a TGI (MOLT-4 leukemia) greater than 100 µM. It also gave a TGI (SNB-19 CNS) greater than 100 µM, a TGI (SK-MEL-5 melanoma) greater than 100 µM and a TGI (UO-31 renal) greater than 100 µM. For the same molecule, the TGI (T-47D breast) was greater than 100 µM, the TGI (HOP-62 NSCLC) was greater than 100 µM and the TGI (SW-620 colon) was greater than 100 µM. It also gave a TGI (OVCAR-4 ovarian) greater than 100 µM, a TGI (TK-10 renal) greater than 100 µM and a TGI (OVCAR-5 ovarian) greater than 100 µM. For the same molecule, the TGI (NCI-H23 lung) was greater than 100 µM, the TGI (K-562 leukemia) was greater than 100 µM and the TGI (IGROV1 ovarian) was greater than 100 µM. For the same molecule, the TGI (HOP-92 NSCLC) was greater than 100 µM, the TGI (OVCAR-3 ovarian) was greater than 100 µM and the TGI (SK-MEL-28 melanoma) was greater than 100 µM. The TGI (CAKI-1 renal) was greater than 100 µM, the TGI (COLO 205 colon) was greater than 100 µM and the TGI (CCRF-CEM leukemia) was greater than 100 µM. It also gave a TGI (MDA-MB-435) greater than 100 µM, a TGI (SF-295 CNS) greater than 100 µM and a TGI (RPMI-8226 leukemia) greater than 100 µM. The TGI (EKVX NSCLC) was greater than 100 µM, the TGI (MDA-MB-231 breast) was greater than 100 µM and the TGI (A498 renal) was greater than 100 µM. The TGI (DU-145 prostate) was greater than 100 µM, the TGI (SK-OV-3 ovarian) was greater than 100 µM and the TGI (NCI-H226 lung) was greater than 100 µM. It also gave a TGI (PC-3 prostate) greater than 100 µM, a TGI (MALME-3M melanoma) greater than 100 µM and a TGI (786-0 renal) greater than 100 µM.
